From patent US20100179122A1 (priority 2005, published 2010)
Read-outs that look alike come from different tables or passages of the source.

Assays:
[1] = target: T1, mutant HIV reverse transcriptase (K103N mutation) (Human immunodeficiency virus type 1 group M subtype B, UniProt P04585, K690N); assay: Analogous RT inhibition assay, K103N mutant; type: biochemical
T1 construct: mutations that occur in the reverse transcriptase segment of the pol gene; made in house
Experimental: (§1) 100 μL reaction mixtures were initiated with a combination of primer-template substrate (10 nM final concentration) and dNTPs (0.6 μM dNTPs, 0.75 μM [^3H]-dGTP). The heterodimeric nucleic acid substrate was generated by annealing the DNA primer pD500 (described in Shaw-Reid et al., J. Biol. Chem., 278: 2777-2780; obtained from Integrated DNA Technologies) to t500, a 500 nucleotide RNA template created by in vitro transcription (see Shaw-Reid et al., J. Biol. Chem., 278: 2777-2780). After 1 hour incubation at 37° C., reactions were quenched by 10 μl, streptavidin scintillation proximity assay beads (10 mg/mL, from Amersham Biosciences) in 0.5 M EDTA, pH 8. Microtiter plates were incubated an additional 10 minutes at 37° C. prior to quantification via Topcount (Packard).
(§2) Analogous assays were conducted substituting mutant HIV strains to determine the […] inhibition of compounds of the present invention against mutant HIV reverse transcriptase. In one strain the reverse transcriptase has the Y181C mutation and in the other strain the reverse transcriptase has the K103N mutation. The mutations were generated with the […] site-directed mutagenesis kit (Stratagene). […] The compounds set forth in the other Examples were not tested in the Y181C assay. […] The compounds set forth in the other Examples were not tested in the K103N assay.

[2] = target: T2, mutant HIV reverse transcriptase (Y181C mutation) (Human immunodeficiency virus type 1 group M subtype B, UniProt P04585, Y768C); assay: Analogous RT inhibition assay, Y181C mutant; type: biochemical; settings: reverse transcriptase with Y181C mutation; tested up to 20 micromolar; read-out: IC50, Y181C mutant assay
T2 construct: mutations that occur in the reverse transcriptase segment of the pol gene; made in house
Experimental: as §1, §2

[3] = tested on: acute HIV infection of T-lymphoid cells; assay: Assay for inhibition of HIV replication (spread assay); type: cell-based; settings: read-out: IC95, spread assay
Experimental: An assay for the inhibition of acute HIV infection of T-lymphoid cells (alternatively referred to herein as the “spread assay”) was conducted in accordance with Vacca, J. P. et al., Proc. Natl. Acad. Sci. USA 1994, 91: 4096. […] The compounds set forth in the other Examples were not tested in the spread assay.

[4] = reverse transcriptase with K103N mutation, tested up to 20 micromolar, read-out: IC50, K103N mutant assay
[5] = Human immunodeficiency virus 1, inhibition of acute HIV infection of T-lymphoid cells

| SMILES | IC50 [1, 4] | IC50 [2] | IC95 [3, 5] | IC50 [1] | IC95 ([3]; Human immunodeficiency virus 1, T-lymphoid) |
| --- | --- | --- | --- | --- | --- |
| O=C(Nc1ccccn1)Nc1[nH]c2ccc(Br)cc2c1S(=O)(=O)N1CCCC1 [Example 75, N-[5-bromo-3-(pyrrolidin-1-ylsulfonyl)-1H-indol-2-yl]-N′-pyridin-2-ylurea] | < 1000 nM | 1000 to 20000 nM | < 1000 nM | – | – |
| O=C(Nc1[nH]c2ccc(Br)cc2c1S(=O)(=O)N1CCCC1)Nc1c(F)cccc1F [Example 77, N-[5-bromo-3-(pyrrolidin-1-ylsulfonyl)-1H-indol-2-yl]-N′-(2,6-difluorophenyl)urea] | < 1000 nM | 1000 to 20000 nM | < 1000 nM | – | – |
| O=C(NCc1ccncc1)Nc1[nH]c2ccc(Br)cc2c1S(=O)(=O)N1CCCC1 [Example 86, N-[5-bromo-3-(pyrrolidin-1-ylsulfonyl)-1H-indol-2-yl]-N′-(pyridin-4-ylmethyl)urea] | < 1000 nM | > 20000 nM | < 1000 nM | – | – |
| NC(=O)Nc1[nH]c2ccc(Br)cc2c1S(=O)(=O)N1CCCC1 [Example 89, N-[5-bromo-3-(pyrrolidin-1-ylsulfonyl)-1H-indol-2-yl]urea] | – | > 20000 nM | < 1000 nM | < 1000 nM | – |
| O=C(NCCCc1ccccc1)Nc1[nH]c2ccc(Br)cc2c1S(=O)(=O)N1CCCC1 [Example 90, N-[5-bromo-3-(pyrrolidin-1-ylsulfonyl)-1H-indol-2-yl]-N′-(3-phenylpropyl)urea] | – | > 20000 nM | – | < 1000 nM | 1000 to 10000 nM |
